pKi: −log10 of the molar value.
Molecular target: rBIIa/beta 1 sodium channels expressed in Xenopus oocytes (Rattus norvegicus, UniProt P04775)
Test: Electrophysiological in vitro assay, two-electrode voltage clamp, sodium channel blockade
Assay type: cell-based
Conditions: apparent inhibition constant for the inactivated state, from single point inhibition data; holding potential −120 mV, 4 second depolarization; read-out: RBIIA/β1 Ki
Experimental: Electrophysiological Assay:
Electrophysiological Assay was used to measure potencies of compounds of the present invention rBIIa/beta 1 sodium channels expressed in Xenopus oocytes.
Preparation of cRNA encoding cloned rat brain type IIa (rBIIa) and beta 1 (β1): cDNA clones encoding the rat brain beta 1 subunit were cloned in house using standard methods, and mRNA were prepared by standard methods. mRNA encoding rBIIa was provided by Dr. A. Golden (UC Irvine). The mRNAs were diluted and stored at −80° C. in 1 μL aliquots until injection. […]
Electrophysiology: Membrane current responses were recorded in frog Ringer solution containing 115 mM NaCl, 2 mM KCl, 1.8 mM CaCl2, 5 mM HEPES, pH 7.4. […]
Voltage protocols for evoking sodium channel currents: The standard holding potential for whole oocyte clamp was −120 mV. […] Peak currents were measured as the maximum negative current after depolarizing voltage steps. […]
The purpose was to find compounds that are state dependent modifiers of neuronal sodium channels. […] Sodium currents were measured at this test pulse before and after the application of the tested compound. Data was acquired using pClamp 8.0 software and analyzed with clampfit software (Axon instruments). […]

rBIIa/beta 1 sodium channels expressed in Xenopus oocytes, sequence (P04775 whole entry): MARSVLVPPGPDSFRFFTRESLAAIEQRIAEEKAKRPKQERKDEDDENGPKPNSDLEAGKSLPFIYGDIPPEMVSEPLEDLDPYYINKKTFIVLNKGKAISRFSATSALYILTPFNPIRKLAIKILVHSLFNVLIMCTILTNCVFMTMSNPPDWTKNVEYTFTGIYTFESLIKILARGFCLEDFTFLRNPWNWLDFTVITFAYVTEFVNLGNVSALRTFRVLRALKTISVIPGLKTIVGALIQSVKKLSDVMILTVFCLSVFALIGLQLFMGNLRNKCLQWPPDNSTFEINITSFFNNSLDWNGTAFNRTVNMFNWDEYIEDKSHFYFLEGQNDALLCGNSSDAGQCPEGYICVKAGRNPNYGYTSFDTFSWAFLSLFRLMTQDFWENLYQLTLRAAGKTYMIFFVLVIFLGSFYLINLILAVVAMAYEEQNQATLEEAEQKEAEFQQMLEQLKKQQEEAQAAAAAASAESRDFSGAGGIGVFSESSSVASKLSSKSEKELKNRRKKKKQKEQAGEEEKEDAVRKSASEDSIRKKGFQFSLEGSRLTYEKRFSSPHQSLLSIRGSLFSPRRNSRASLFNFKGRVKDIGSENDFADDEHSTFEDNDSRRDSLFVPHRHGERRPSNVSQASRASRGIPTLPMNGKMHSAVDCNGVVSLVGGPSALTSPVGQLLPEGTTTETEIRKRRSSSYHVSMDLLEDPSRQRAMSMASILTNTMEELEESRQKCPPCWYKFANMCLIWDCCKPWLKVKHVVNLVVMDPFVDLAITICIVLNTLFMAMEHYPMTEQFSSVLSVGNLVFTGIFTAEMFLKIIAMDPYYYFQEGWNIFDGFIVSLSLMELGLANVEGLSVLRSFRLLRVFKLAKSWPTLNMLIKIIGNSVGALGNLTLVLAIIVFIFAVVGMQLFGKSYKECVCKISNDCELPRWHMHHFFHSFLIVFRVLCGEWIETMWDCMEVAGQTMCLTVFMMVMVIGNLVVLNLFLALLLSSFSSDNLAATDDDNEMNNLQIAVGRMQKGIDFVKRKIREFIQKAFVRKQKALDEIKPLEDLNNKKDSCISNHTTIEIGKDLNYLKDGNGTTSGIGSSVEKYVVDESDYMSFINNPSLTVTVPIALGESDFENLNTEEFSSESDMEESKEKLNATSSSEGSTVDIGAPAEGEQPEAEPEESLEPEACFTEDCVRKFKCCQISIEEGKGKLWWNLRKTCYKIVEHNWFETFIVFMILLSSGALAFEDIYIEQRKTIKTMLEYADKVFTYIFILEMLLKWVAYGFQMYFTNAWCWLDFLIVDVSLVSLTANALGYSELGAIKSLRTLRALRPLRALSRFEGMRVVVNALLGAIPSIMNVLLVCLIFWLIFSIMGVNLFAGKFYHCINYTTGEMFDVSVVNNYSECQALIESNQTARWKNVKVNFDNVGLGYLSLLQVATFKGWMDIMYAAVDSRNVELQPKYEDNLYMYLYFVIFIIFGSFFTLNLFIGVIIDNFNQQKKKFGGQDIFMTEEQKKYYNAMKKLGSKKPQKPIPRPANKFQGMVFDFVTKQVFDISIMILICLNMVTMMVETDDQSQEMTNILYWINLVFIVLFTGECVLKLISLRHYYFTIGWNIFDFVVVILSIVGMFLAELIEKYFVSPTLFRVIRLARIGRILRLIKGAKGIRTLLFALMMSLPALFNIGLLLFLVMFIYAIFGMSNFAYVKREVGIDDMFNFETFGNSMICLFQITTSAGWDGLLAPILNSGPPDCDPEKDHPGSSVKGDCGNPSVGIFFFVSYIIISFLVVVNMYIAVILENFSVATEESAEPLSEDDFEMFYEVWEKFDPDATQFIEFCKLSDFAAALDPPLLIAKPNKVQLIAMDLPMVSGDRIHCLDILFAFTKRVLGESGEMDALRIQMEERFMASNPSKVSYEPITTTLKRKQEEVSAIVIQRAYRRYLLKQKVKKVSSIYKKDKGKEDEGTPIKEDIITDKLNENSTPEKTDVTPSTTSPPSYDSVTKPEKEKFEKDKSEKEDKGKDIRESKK
rBIIa/beta 1 sodium channels expressed in Xenopus oocytes, sequence (Q00954 19-218 partner): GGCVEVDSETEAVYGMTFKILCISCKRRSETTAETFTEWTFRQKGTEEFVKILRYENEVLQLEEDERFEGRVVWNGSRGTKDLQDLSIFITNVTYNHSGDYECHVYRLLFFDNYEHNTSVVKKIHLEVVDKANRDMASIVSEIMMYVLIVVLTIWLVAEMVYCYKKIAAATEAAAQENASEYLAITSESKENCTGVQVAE

pKi	Compound
6.54	NC(=O)c1cc(N2CCOCC2)cc(-c2ccc(Oc3ccc(F)cc3)cc2)n1 [2-[4-(4-Fluorophenoxy)phenyl]-4-N-morpholinylpyridine-6-carboxamide]
6.74	Cc1cc(OCCN2CCCCC2)cc(-c2ccc(Oc3ccc(F)cc3)cc2)n1 [2-[4-(4-Fluorophenoxy)phenyl]-6-methyl-4-[2-(N-piperidinyl)ethoxy]-pyridine]

Source: patent US6770661B2, “Aryl substituted pyridines and their use” (Euro-Celtique S.A., priority 2001, dated 2004)
